Laboratory results from patent US20250277793A1, “COMPOSITIONS AND METHODS FOR CANCER DIAGNOSIS” (AOA Dx, priority 2020, published 2025).
“And” between values parts separate entries of the source, which are not always exact repeats. Equal entries are not always repeated.

Tests used:
[1] = test system: serum from mice vaccinated with PAMAM-GD2; assay: Direct binding ELISA, GD2 versions with vaccinated mouse sera; conditions: antigen 10 ng/well, serum 1:75 dilution; for OD(450 nm): individual replicate wells; for OD(450 nm) Average: mean of 3
Description: (§1) Native gangliosides (GD2 or GD3, Control), Tria-tri-GD2, Tria-tri-GD3, PAMAM-GD2, PAMAM-GD3, or the monomeric precursors AP-GD2 or AP-GD3 were immobilized onto polystyrene Corning Strip Well 96-well plates (10 ng/well). After bocking all wells with albumin (BSA), the wells were reacted for binding by anti-GD2 or […] (7 nM final) or with serum from mice vaccinated with PAMAM-GD2 (1:75 dilution). Secondary antibody used was horseradish peroxidase (HRP)-conjugated anti-mouse IgG (Sigma). BG=background control.

[2] = Water solubility of intermediate carbohydrates; format: physicochemical; conditions: read-out: water soluble
Description: p-Aminophenylether-b-D-lactopyranoside (AP-Lac, from Toronto Research Chemicals) was used to enzymatically synthesize water soluble (>20 mg/ml) AP-GD2 and AP-GD3 intermediate carbohydrates. The synthesis of AP-GD2 included […] of AP-GD3 (4 mM), […] of UDP-GalNAc (5.4 mM), and 10.5 units of CgtA (construct CJL-30), 10 mM MnCl2 and 24 mM Hepes pH 7.0 in a final volume of 55 ml. The reaction mixture was incubated at 37° C. for 6.5 hr. Insoluble material was removed by centrifugation at 27,000 g for 15 min and the enzyme was removed by ultrafiltration using a 10 kDa membrane cut off. The filtrate was loaded on SepPak C18 5 g column (waters Corp) and the product was eluted with water while unidentified contaminants remained in the column. The product was further purified by anion exchange chromatography on HiTrapQ (GE Healthcare) using a gradient of 0-0.3 M NH4HCO3 and by size exclusion chromatography on a Superdex Peptide 10/300 GL column (GE Healthcare). The measured molecular weights of AP-GD2 (1,218 g/mol) and AP-GD3 (927 g/mol) correspond to expected values. Structures were verified by 1D and 2D NMR spectroscopy and mass spectrometry (EI-MS). […]

[3] = test system: anti-GD2 mAbs; assay: Direct binding ELISA, GD2 versions with anti-GD2 antibody; design: species or system mouse; conditions: antigen immobilized 10 ng/well, mAb 7 nM final; for OD(450 nm): individual replicate wells; for OD(450 nm) Average: mean of 3
Description: as §1

[4] = test system: antisera raised against PAMAM-GD3; assay: Direct binding ELISA, GD3 versions with vaccinated mouse sera; design: species or system mice; conditions: antigen 10 ng/well, serum 1:75 dilution; for OD(450 nm): individual replicate wells; for OD(450 nm) Average: mean of 3
[5] = test system: anti-GD3 mAbs; assay: Direct binding ELISA, GD3 versions with anti-GD3 antibody; design: species or system mouse; conditions: antigen immobilized 10 ng/well, mAb 7 nM final; for OD(450 nm): individual replicate wells; for OD(450 nm) Average: mean of 3
Description: as §1

SMILES: CC(=O)NC1C(OC2C(CO)OC(OC3C(CO)OC(Oc4ccc(N)cc4)C(O)C3O)C(O)C2OC2(C(=O)O)CC(O)C(NC(C)=O)C([C@H](O)C(CO)OC3(C(=O)O)CC(O)C(NC(C)=O)C([C@H](O)[C@H](O)CO)O3)O2)OC(CO)C(O)C1O (stereo partly drawn) [AP-GD2, p-amino phenyl ether-GD2]
- OD(450 nm) [1]: 0.694 and 0.587 and 0.635
- OD(450 nm) Average [1]: 0.6387
- solubility [2]: > 20 mg/mL
- OD(450 nm) [3]: 0.483 and 0.558 and 0.568
- OD(450 nm) Average [3]: 0.5363

SMILES: CC(=O)NC1C(O)CC(OC2C(O)C(CO)OC(OC3C(CO)OC(Oc4ccc(N)cc4)C(O)C3O)C2O)(C(=O)O)OC1[C@H](O)C(CO)OC1(C(=O)O)CC(O)C(NC(C)=O)C([C@H](O)[C@H](O)CO)O1 (stereo partly drawn) [AP-GD3, p-amino phenyl ether-GD3]
- OD(450 nm) [4]: 0.483 and 0.558 and 0.568
- OD(450 nm) Average [4]: 0.5363
- OD(450 nm) [5]: 0.483 and 0.558 and 0.568
- OD(450 nm) Average [5]: 0.5363
- solubility [2]: > 20 mg/mL

SMILES: CC/C=C/C(O)C(CO[C@@H]1OC(CO)[C@@H](O[C@@H]2OC(CO)[C@H](O[C@@H]3OC(CO)[C@H](O)C(O)C3NC(C)=O)C(O[C@]3(C(=O)O)CC(O)[C@@H](NC(C)=O)C([C@H](O)[C@@H](CO)O[C@]4(C(=O)O)CC(O)[C@@H](NC(C)=O)C([C@H](O)[C@H](O)CO)O4)O3)C2O)C(O)C1O)NC(=O)CC (stereo partly drawn) [GD2, reference compound]
- OD(450 nm) [1]: 1.319 and 1.23 and 1.128
- OD(450 nm) Average [1]: 1.226
- OD(450 nm) ([3]; listed as Control): 1.174 and 1.069 and 1.072
- OD(450 nm) Average [3]: 1.105

SMILES: CC/C=C/C(O)C(CO[C@@H]1OC(CO)[C@@H](O[C@@H]2OC(CO)[C@H](O)C(O[C@]3(C(=O)O)CC(O)[C@@H](NC(C)=O)C([C@H](O)[C@@H](CO)O[C@]4(C(=O)O)CC(O)[C@@H](NC(C)=O)C([C@H](O)[C@H](O)CO)O4)O3)C2O)C(O)C1O)NC(=O)CC (stereo partly drawn) [GD3, reference compound]
- OD(450 nm) [4]: 0.646 and 0.534 and 0.555
- OD(450 nm) Average [4]: 0.5783
- OD(450 nm) [5]: 0.602 and 0.465 and 0.493
- OD(450 nm) Average [5]: 0.52
